Measurements published in paper PMC5312321, “A general strategy to optimize immunogenicity of HLA-B*0702 restricted cryptic peptides from tumor associated antigens: Design of universal neo-antigen like tumor vaccines for HLA-B*0702 positive patients” (Oncotarget, 2016).

How the values were obtained:
[1] = test system: HLA-B*0702 transgenic mice; assay: Vaccination of HLA-B*0702 transgenic mice; specific CTLs detected by cytotoxicity or IFNγ ELISPOT; format: in vivo, mouse; conditions: for cross recognition of the native peptide by CTLs induced by the optimized peptide in mice (in words): HLA-B*0702 transgenic mice, target cells loaded with native peptide; for Immunogenicity against optimized peptide (responding mice/vaccinated mice) / Immunogenicity against native peptide (responding mice/vaccinated mice): mice vaccinated twice with the optimized peptide; for Immunogenicity against optimized peptide (responding mice/vaccinated mice): cytotoxicity or IFNγ ELISPOT against target cells loaded with the optimized peptide; for immunogenicity in HLA-B*0702 transgenic mice (in words): specific CTL induction after vaccination, cytotoxicity (ratio 30/1) or IFNγ ELISpot; for Immunogenicity against native peptide (responding mice/vaccinated mice): target cells loaded with the corresponding native peptide
Procedure: The HLA-B7 H-2 class-I knockout mice were previously described.
Mice were injected subcutaneously with 100 μg of peptide emulsified in Incomplete Freund's Adjuvant (IFA) in the presence of 150 μg of the I-A^b restricted HBVcore128 T helper epitope ([…]) twice at two weeks interval.
A particular protocol was applied for MAGE-A 274L9, with two injections of this peptide at two weeks interval and 15 days later one injection with each one of the native peptide.
On day 6 of culture the bulk responder populations were tested for specific cytotoxicity. […] Percentage of specific lysis was determined as: % Lysis = (Experimental Release-Spontaneous Release) / (Maximal Release-Spontaneous Release) × 100. Spontaneous release is obtained using medium only, maximum release with HCl 0.1 M.
Seven days after the last vaccination, spleens were removed and T cells were isolated by Ficoll centrifugation and tested ex vivo for the recognition of 10 μM of either the native or optimized peptide. IFNγ producing T cells were quantified by ELISpot using the Diaclone Kit Murine IFNγ ELISpot (Besançon, France) according to manufacturer's recommendations. 250 000 spleen T cells were distributed per well and tested for the recognition of 10 μM of either the native or optimized peptide. Positive control was Concanavalin A and negative control was medium alone. All conditions were tested in sixplicates.

[2] = test system: CD8+ T cells from healthy donors; assay: In vitro induction of specific CTLs from PBMC of healthy HLA-B*0702 donors (IFNγ intracellular staining or ELISPOT); format: cell-based, human; conditions: for immunogenicity in vitro in human PBMC (in words): CD8+ T cells from healthy donors, four stimulations with peptide loaded autologous DC; for Immunogenicity against optimized peptide (number of positive culture/number of total cultures): human healthy donor PBMC stimulated with optimized peptide loaded DC, T2-B7 cells loaded with optimized peptide; for Immunogenicity against native peptide (number of positive culture/number of total cultures): human healthy donor PBMC stimulated with optimized peptide, T2-B7 cells loaded with corresponding native peptide
Procedure: CD8+ T cells from healthy donors were in vitro stimulated with autologous dendritic cells loaded with each optimized cryptic peptide. After four stimulations, proliferating cells were tested for the presence of IFNγ producing CTLs upon stimulation with T2-B7 cells loaded with optimized or native peptides either by intracellular IFNγ staining or by IFNγ ELISPOT assay.
PBMC were collected by leukapheresis from healthy HLA-A*B702 volunteers. Dendritic cells (DC) were produced from adherent cells cultured with 500 IU/ml GM-CSF and 500 IU/ml IL-4, in complete synthetic medium (AIMV) for seven days. On day 7, DCs were pulsed with 10 μM of peptide during 2 hours and CD8^+ cells were purified by negative selection with CD8 Dynabeads Untouched Human CD8. CD8^+ cells (2 × 10^5) + CD8^− cells (6 × 10^4) were stimulated with 3 × 10^4 peptide-pulsed DC in AIMV medium supplemented with 1000 IU/ml IL-6 and 5 IU/ml IL-12 in round-bottomed 96-well plates.
From day 7, cultures were stimulated weekly with peptide-loaded DC in the presence of 20 IU/ml IL-2 and 10 ng/ml IL-7, 1 μg/ml anti-CD40 and 500 IU/ml IFNγ.
After the third stimulation, CD8 cells were maintained in AIMV supplemented with 20 IU/ml IL-2 during 7 days. Cultures were starved overnight with AIMV and then were tested in an intracellular IFNγ and an IFNγ ELISpot assay.
Stimulated T cells (10^5) from each pool were incubated with 2 × 10^5 T2 cells loaded with stimulating peptide in the presence of 20 μg/ml Brefeldin-A (Sigma, Oakville, Canada). Six hours later they were washed, stained with r-phycoerythrin-conjugated anti-CD8 antibody (Caltag Laboratories, Burlingame, CA, USA) in PBS for 25 min at 4°C, washed again, and fixed with 4% PFA. The cells were then permeabilized with PBS, 0.5% BSA, 0.2% saponin (Sigma, Oakville, Canada), and labelled with an allophycocyanin-conjugated anti-IFNγ mAb (PharMingen, Mississauga, Canada) for 25 min at 4°C before analysis with a FACSCalibur® flow cytometer.
Stimulated T cells were splited in four pools and IFNγ producing T cells was quantified in each pool by ELISpot using the Diaclone Kit Human IFNγ ELISpot (Besançon, France) according to manufacturer's recommendations. 250 000 cells were distributed per well and tested for the recognition of 10 μM of either the native or optimized peptide. Positive control was Concanavalin A and negative control was medium alone or an irrelevant peptide. All conditions were tested in sixplicates.

HLA-B*0702 = target: T1, HLA-B*0702 (Homo sapiens, UniProt P01889); assay: Measurement of peptide relative affinity to HLA-B*0702 (surface expression on T2-B7 cells); format: cell-based
T1 construct: expressed in transfected cells; host or cells: human T2-B7 cells (T2 transfected with HLA-B*0702)
Procedure: The protocol used has been described previously. Briefly, T2-B7 cells were incubated at 37°C for 16 hours with peptides concentrations ranging from 100 μM to 0.1 μM (100 μM, 10 μM, 1 μM and 0.1μM), and then stained with ME-1 monoclonal antibody (mAb) to quantify the surface expression of HLA-B*0702. For each peptide concentration, the HLA-B*0702 specific staining was calculated as the percentage of staining obtained with 100 μM of the reference peptide CMV265–274 (R10V; […], SEQ ID NO: 9). The relative affinity (RA) was determined as: RA = (Concentration of each peptide that induces 20% of HLA-B*0702-expression/Concentration of the reference R10V peptide that induces 20% of HLA-B*0702 expression). In case of non-binders peptide, RA is not evaluable since the 20% of HLA-B*0702 expression is not reach even with the highest concentration of peptide.

Row | Sequence | cross recognition of the native peptide by CTLs induced by the optimized peptide in mice (in words) [1] | (Number of spots – background)/10^6 cells ([1]; IFNγ ELISpot, Figure 3, value printed in the picture, mouse vaccinated twice at two weeks interval, statistically significant (*)) | Immunogenicity against optimized peptide (responding mice/vaccinated mice) [1] | Immunogenicity against native peptide MAGE-A1_267 (responding mice/vaccinated mice) ([1]; mice vaccinated with optimized peptide, target cells loaded with MAGE-A1_267) | Immunogenicity against native peptide MAGE-A2_274 (responding mice/vaccinated mice) ([1]; mice vaccinated with optimized peptide, target cells loaded with MAGE-A2_274) | Immunogenicity against native peptide MAGE-A3_274 (responding mice/vaccinated mice) ([1]; mice vaccinated with optimized peptide, target cells loaded with MAGE-A3_274) | immunogenicity in HLA-B*0702 transgenic mice (in words) [1] | immunogenicity in vitro in human PBMC (in words) [2] | cross recognition of native peptide by human CTLs induced by the optimized peptide (in words) ([2]; T2-B7 cells loaded with optimized or native peptides, IFNγ staining or ELISPOT) | Immunogenicity against native peptide MAGE-A1_269 (positive culture/total cultures) ([2]; human PBMC stimulated with optimized peptide, targets loaded with MAGE-A1_269 as printed) | Immunogenicity against native peptide MAGE-A2_274 (positive culture/total cultures) ([2]; human PBMC stimulated with optimized peptide, targets loaded with MAGE-A2_274) | Immunogenicity against native peptide MAGE-A3_274 (positive culture/total cultures) ([2]; human PBMC stimulated with optimized peptide, targets loaded with MAGE-A3_274) | Immunogenicity against optimized peptide (number of positive culture/number of total cultures) [2] | Immunogenicity against native peptide (responding mice/vaccinated mice) [1] | Immunogenicity against native peptide (number of positive culture/number of total cultures) [2] | RA (Relative Affinity) (HLA-B*0702; 37°C 16 hours, peptide 100 μM to 0.1 μM, ME-1 mAb staining, RA = concentration inducing 20% of HLA-B*0702 expression / that of reference R10V, mean ± SD, at least three experiments, ≥ 10 = 10 or not measurable, SD) | binding to / affinity for HLA-B*0702 (in words) (HLA-B*0702; relative to reference peptide R10V)
1 | GPRALVETL [MAGE-A274 L9, optimized peptide derived from MAGE-A3_274, leucine at position 9] | able to recognize target cells loaded with MAGE-A3_274 but also MAGE-A1_267 and MAGE-A2_274 | 3023 /10^6 cells | 18/18 | 3/8 | 3/5 | 4/5 | immunogenic | confirmed | cross recognition of MAGE-A3_274 and MAGE-A2_274 was confirmed but not for MAGE-A1_267 | 0/4 | 2/4 | 2/4 | 2/4 |  |  |  | 
2 | APKHSDCLA [HER2/neu246A1, optimized Her2/neu246 modified at position 1 by an alanine] | able to recognize target cells loaded with their corresponding native peptide |  | 8/12 |  |  |  | immunogenic | confirmed |  |  |  |  | 2/4 | 5/12 | 1/4 |  | 
3 | APRRLVQLL [TERT444A1, optimized TERT444, alanine at position 1] |  |  |  |  |  |  |  | confirmed |  |  |  |  | 1/2 |  | 2/2 | 1.4 ± 0.83 | high HLA-B*0702 affinity
4 | SPRLQLSNL [CEA188L9, optimized CEA188 modified at last position by a leucine] | able to recognize target cells loaded with their corresponding native peptide |  | 6/6 |  |  |  | immunogenic | confirmed |  |  |  |  | 1/3 | 6/6 | 2/3 |  | 
